Data on one molecule can be found in ChEMBL document CHEMBL4219215, “Discovery of {4-[4,9-bis(ethyloxy)-1-oxo-1,3-dihydro-2H-benzo[f]isoindol-2-yl]-2-fluorophenyl}acetic acid (GSK726701A), a novel EP4 receptor partial agonist for the treatment of pain” (Bioorg Med Chem Lett, 2018).

A word on the CL/F: it is clearance divided by bioavailability, as obtained after extravascular dosing. What is called IC50 is the midpoint of a concentration-inhibition curve. Broadly, the half-life is the time needed for the level to fall by half in the phase considered. What is called Kp is the ratio of the level in a tissue or fluid to that in plasma or blood. Broadly, the inhibition in vivo is the drop in the measured response relative to a control, in per cent.

A short description of data set [1]: Intrinsic clearance in rat liver microsomes. The data set is classed as ADME, microsome.
Data set [2] can be described thus: Intrinsic clearance in human liver microsomes. The data set is classed as ADME, microsome. In general terms: Microsomes from liver hold many membrane-bound enzymes, among them those of drug oxidation.
Data set [3] is described as follows: Blood clearance in rat at 1 mg/kg, po. The data set is classed as ADME, organism-based.
Data set [4] is filed under the species Homo sapiens. The data set can be described thus: Selectivity index, ratio of pIC50 for EP3 receptor (unknown origin) to pEC50 for partial agonist activity at human EP4 receptor expressed in HEK293-AEQ17 cells. The data set is classed as cell-based.
Data set [5] is filed under the species Homo sapiens. The data set can be described thus: Selectivity index, ratio of pIC50 for FP receptor (unknown origin) to pEC50 for partial agonist activity at human EP4 receptor expressed in HEK293-AEQ17 cells. The data set is classed as cell-based.
The target in data set [6] is Prostaglandin E2 receptor EP2 subtype (Homo sapiens) (UniProt P43116). The data set can be described thus: Agonist activity at EP2 receptor (unknown origin) assessed as induction of receptor activation at 1 uM. The data set is classed as functional.
Prostaglandin E2 receptor EP2 subtype (Homo sapiens), sequence (P43116 whole entry): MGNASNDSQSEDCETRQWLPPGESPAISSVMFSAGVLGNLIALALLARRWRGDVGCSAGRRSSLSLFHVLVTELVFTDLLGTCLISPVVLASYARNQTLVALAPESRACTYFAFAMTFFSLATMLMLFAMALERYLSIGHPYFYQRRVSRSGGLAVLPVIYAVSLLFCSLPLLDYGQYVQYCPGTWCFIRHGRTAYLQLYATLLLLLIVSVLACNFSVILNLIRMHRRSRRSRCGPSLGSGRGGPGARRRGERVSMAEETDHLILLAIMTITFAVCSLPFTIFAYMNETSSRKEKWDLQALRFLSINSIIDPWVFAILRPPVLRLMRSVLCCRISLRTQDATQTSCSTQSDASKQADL
Data set [7] deals with T1, Prostaglandin E2 receptor EP3 subtype (Homo sapiens, UniProt P43115).
T1 sequence (P43115 whole entry): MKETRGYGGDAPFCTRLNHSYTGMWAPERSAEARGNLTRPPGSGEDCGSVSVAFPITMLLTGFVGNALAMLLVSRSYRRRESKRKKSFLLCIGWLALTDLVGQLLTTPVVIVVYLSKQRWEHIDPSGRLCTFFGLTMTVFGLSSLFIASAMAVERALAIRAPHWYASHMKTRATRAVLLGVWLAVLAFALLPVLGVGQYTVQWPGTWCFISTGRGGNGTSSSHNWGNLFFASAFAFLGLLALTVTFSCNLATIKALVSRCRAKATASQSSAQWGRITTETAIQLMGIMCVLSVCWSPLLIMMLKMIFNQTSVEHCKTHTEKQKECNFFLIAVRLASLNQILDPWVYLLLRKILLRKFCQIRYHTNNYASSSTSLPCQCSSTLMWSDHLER
The data set can be described thus: Activity at EP3 receptor (unknown origin).

The target of data set [8] is Prostaglandin F2-alpha receptor (Homo sapiens, UniProt P43088). The data set can be described thus: Activity at FP receptor (unknown origin).
Prostaglandin F2-alpha receptor, sequence (P43088 whole entry): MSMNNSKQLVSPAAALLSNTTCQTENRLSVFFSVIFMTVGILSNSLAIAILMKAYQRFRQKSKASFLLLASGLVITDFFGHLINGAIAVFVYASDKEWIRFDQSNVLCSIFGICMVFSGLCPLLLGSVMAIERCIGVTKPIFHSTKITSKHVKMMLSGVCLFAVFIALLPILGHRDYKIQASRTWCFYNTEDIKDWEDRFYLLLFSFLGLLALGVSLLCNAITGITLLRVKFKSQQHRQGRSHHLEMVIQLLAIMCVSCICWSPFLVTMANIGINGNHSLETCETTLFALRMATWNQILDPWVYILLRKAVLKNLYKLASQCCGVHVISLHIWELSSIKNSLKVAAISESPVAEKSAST
Another data set has as its target T2, Thromboxane A2 receptor (Homo sapiens, UniProt P21731).
T2 sequence (P21731 whole entry): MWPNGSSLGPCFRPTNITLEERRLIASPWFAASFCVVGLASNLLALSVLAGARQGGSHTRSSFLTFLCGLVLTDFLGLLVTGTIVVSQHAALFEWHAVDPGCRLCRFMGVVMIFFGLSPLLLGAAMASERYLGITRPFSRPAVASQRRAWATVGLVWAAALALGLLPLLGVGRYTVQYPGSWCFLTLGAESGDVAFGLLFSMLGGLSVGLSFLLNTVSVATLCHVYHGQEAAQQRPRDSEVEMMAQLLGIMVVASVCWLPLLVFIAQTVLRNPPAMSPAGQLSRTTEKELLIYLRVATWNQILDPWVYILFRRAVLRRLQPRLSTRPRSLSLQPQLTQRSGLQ
The experiment in a line: Activity at TP receptor (unknown origin).

Data set [9] can be described thus: Intrinsic clearance in dog liver microsomes. The data set is classed as ADME, Canis lupus familiaris, microsome.
The next data set deals with Canis familiaris. The experiment in a line: Blood clearance in orally dosed dog. To be noted: in vivo, po. The data set is classed as ADME, organism-based, Canis lupus familiaris.
The nature of data set [10]: Half life in orally dosed dog. The data set is classed as ADME, organism-based, Canis lupus familiaris. The settings on record: in vivo, po.
Data set [11] is described as follows: Half life in orally dosed cynomolgus monkey. The data set is classed as ADME, organism-based, Macaca fascicularis. To be noted: in vivo, po.
Data set [12] is described as follows: Oral bioavailability in rat at 1 mg/kg. The data set is classed as ADME, organism-based. The settings on record: in vivo.
A short description of data set [13]: Oral bioavailability in dog. The data set is classed as ADME, organism-based, Canis lupus familiaris. The settings on record: in vivo.
Data set [14] is described as follows: Protein binding in human plasma. The data set is classed as ADME, cell-free. The settings on record: read-out: PPB.
Data set [15] can be described thus: Ratio of drug level in brain to blood in rat at 1 mg/kg, po. The data set is classed as ADME, organism-based.
A further data set deals with Rattus norvegicus. The experiment in a line: Analgesic activity in rat model of chronic joint pain assessed as reversal of pain by measuring weight bearing level at 1 mg/kg, po dosed twice daily for 5 days relative to untreated control. The data set is classed as functional. To be noted: 120 h.

On to `CCOc1c2c(c(OCC)c3ccccc13)C(=O)N(c1ccc(CC(=O)O)c(F)c1)C2`, for which the CLH in data set [1], in data set [2] and in data set [9] was below 1 mL/min/g in each case. In data set [3], this molecule gave an apparent clearance (CL/F) of 1 mL/min/kg. Moreover, the Selectivity ratio in the data set listed under Homo sapiens [4] and in the data set filed under Homo sapiens [5] was above 100 each time. Further, the Activity in data set [6] was 14%. The IC50 (in data set [7]; in [8]; against Thromboxane A2 receptor) was above 10 µM each time. The same molecule displayed a clearance in the data set on Canis familiaris of 4 mL/min/kg. For the same molecule, the half-life in data set [10] is 8 h; in [11] it was 5 to 10 h. For the same molecule, the figures for the bioavailability in data set [12] and in data set [13] were 112% and 69%, respectively. Also, the fraction unbound in data set [14] was determined as 0.001. Further, the concentration ratio (Kp) in [15] was below 0.05. Also, in the data set on Rattus norvegicus, the inhibition in vivo at 1 mg/kg stood at 100%.
